# In patent US8557603B2, “Synthetic peptides, methods and kits for diagnosing autoimmune diseases” (FlySun Development Co. Ltd., priority 2009, dated 2013):
# System: IgA autoantibodies of patients with acute HSP
# Assay: ELISA detection of IgA anti-β2-GPI-derived peptides antibodies
# Assay type: binding, human
# Conditions: for binding between IgA derived from 7 patients with acute HSP and the synthetic peptide: IgA1-7 at 10 (g/ml), n=7, OD higher than positive control (β2-GPI) regarded as significant, FIG. 8; for plasma level of IgA anti-β2-GPI peptide antibodies in children with acute HSP compared with healthy subjects: plasma 1:50, peptide coated at 10 (g/ml), expressed as OD, p<0.0001
# Protocol: Circulating IgA immunoglobulins were isolated from 7 plasma samples positive for both CL and β2GPI by use of a commercial kit, Immobilized Jacalin (PIERCE, USA, USA), which isolates serum-circulating IgA1 by galactose-binding lectin.
# Briefly, 96-well high binding plates (Costar, Cambridge, Mass., USA) are coated with human β-2-GPI peptides 1-15 at a concentration of 10 (g/ml in Tris-buffered saline (TBS, 0.05 M Tris-HCl and NaCl, PH 7.5). After incubating overnight at 4° C., plates are blocked with TBS containing 0.3% gelatin. Then, plasma samples (1:50 for IgA), and IgA fraction from patients (indicated concentrations) in TBS/0.1% gelatin were distributed into wells in duplicate and incubated for 1.5 hours at room temperature. A pooled normal human IgA (Jackson ImmunoResearch, West Grove, Pa., USA) will be used as negative controls at the same concentrations. After washing with TBS, bound human […] were detected with HRP-conjugated goat anti-human IgA (BioSource International, Camarillo, Calif., USA), and the peroxidase substrate tetramethylbenzidine (Kirkegaard & Perry Laboratories, Gaithersburg, Md., USA). Results were read at a wavelength of 450 nm against a background of 650 nm with a Thermomax plate reader (Molecular Devices Inc., Sunnyvale, Calif., USA).
Substance,binding between IgA derived from 7 patients with acute HSP and the synthetic peptide,"plasma level of IgA anti-β2-GPI peptide antibodies in children with acute HSP compared with healthy subjects (FIGS. 7, 8 and 9)","binding strength among the synthetic peptides (IgA anti-peptide antibodies, children with acute HSP, FIGS. 7, 8 and 9)"
"H2N-FKNGMLHGDKVSFFCKNKEK-COOH (H-FKNGMLHGDKVSFFCKNKEK-OH; listed as Homo sapiens) [P12, synthetic β2-GPI-derived peptide, residues 286-305]",significant binding,significantly higher,
"H2N-KATFGCHDGYSLDGPEEIECTKLGNWSAMPSCKASCKVPVKKATVVYQGERVKIQEK-COOH (H-KATFGCHDGYSLDGPEEIECTKLGNWSAMPSCKASCKVPVKKATVVYQGERVKIQEK-OH; cysteine pairing not given here; listed as Homo sapiens) [P11, synthetic β2-GPI-derived peptide, residues 229-285]",significant binding,significantly higher,
"H2N-KPGYVSRGGMRKFICPLTGLWPINTLK-COOH (H-KPGYVSRGGMRKFICPLTGLWPINTLK-OH; listed as Homo sapiens) [P3, synthetic β2-GPI-derived peptide, residues 52-78]",significant binding,significantly higher,most significant
"H2N-KWSPELPVCAPIICPPPSIPTFATLRVYK-COOH (H-KWSPELPVCAPIICPPPSIPTFATLRVYK-OH; cysteine pairing not given here; listed as Homo sapiens) [P7, synthetic β2-GPI-derived peptide, residues 129-157]",significant binding,significantly higher,
"H2N-RYTTFEYPNTISFSCNTGFYLNGADSAK-COOH (H-RYTTFEYPNTISFSCNTGFYLNGADSAK-OH; listed as Homo sapiens) [P5, synthetic β2-GPI-derived peptide, residues 96-123]",significant binding,significantly higher,
